Test systems include HL-60; KM12; MCF7; RXF 393; M14; HCT-15; HCC 2998; Malme-3M; SK-OV-3; LOX IMVI; T47D; OVCAR-3; SF-539; SK-MEL-2; OVCAR-8; A549; NCI-H460; SF-268; SR; HOP-92.
Test in all cases: NCI anticancer screen, dose series, 48 h

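Each compound was tested at five concentrations against cells in 96-well plates for 48 hours. Here, GI50 denotes the concentration required for 50% inhibition of growth.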 Activity calls are given as the source filed them. No stated cut-off is given here; in the data, active = GI50 up to about 1.1 µM and inactive = higher. Bounds are passed on as bounds.

For `O=S(=O)(O)SCCNCCCCCC1CCCCC1`, the GI50 in the test on HL-60 is 7.29 µM (inactive); with KM12, 2.79 µM (inactive); in the test on MCF7 it was 2.75 µM (inactive); in the test on RXF 393, 17.1 µM (inactive); in the test on M14, 4.95 µM (inactive); in the test with HCT-15 it was 8.77 µM. In addition, the GI50 in the test on HCC 2998 was 5.41 µM (inactive); with Malme-3M it was 18.8 µM (inactive); with SK-OV-3 it was 15.7 µM (inactive); in the test on LOX IMVI, 2.14 µM (inactive); in the test with T47D, 13.6 µM (inactive); in the test on OVCAR-3, 5.87 µM (inactive). The GI50 in the test on SF-539 was 7.11 µM (inactive); with SK-MEL-2 it was 2.87 µM (inactive); in the test on OVCAR-8 it was 10 µM (inactive); in the test with A549 it was 7.8 µM (inactive); with NCI-H460, 4.72 µM (inactive); with SF-268 it was 3.05 µM (inactive). Also, the GI50 in the test with SR was 8.99 µM (inactive); in the test on HOP-92 it was 20.8 µM (inactive).

For the compound `COC(=O)c1cc(CNCCc2c[nH]c3ccccc23)on1`, the GI50 in the test on HL-60 is > 100 µM (inactive); in the test on KM12, > 100 µM (inactive); with MCF7 it was > 100 µM (inactive); in the test on RXF 393, > 66.8 µM (inactive); in the test with M14 it was > 100 µM (inactive); in the test on HCT-15 it was > 100 µM. In addition, the GI50 in the test with HCC 2998 is > 95.5 µM (inactive); in the test on Malme-3M, > 100 µM (inactive); in the test on SK-OV-3, > 100 µM (inactive); with LOX IMVI, > 100 µM (inactive); in the test with T47D, > 100 µM (inactive); with OVCAR-3, > 100 µM (inactive). The GI50 with SF-539 is 74.1 µM (inactive); in the test with SK-MEL-2 it was > 100 µM (inactive); with OVCAR-8, > 100 µM (inactive); in the test on A549, > 100 µM (inactive); in the test with NCI-H460, > 58.1 µM (inactive); with SF-268, > 100 µM (inactive). The GI50 is > 100 µM (inactive) in the test on SR and 92.5 µM (inactive) with HOP-92.

Take `CCOC(=O)C(NC(=O)c1ccccc1)(Nc1ccc(S(=O)(=O)Nc2cc(C)on2)cc1)C(F)(F)F` (stereo not given): the GI50 in the test with HL-60 is > 100 µM (inactive); in the test on KM12 it was > 100 µM (inactive); in the test on MCF7, > 100 µM (inactive); in the test with RXF 393, > 100 µM (inactive); in the test on M14, > 100 µM (inactive); with HCT-15 it was > 100 µM. Besides, the GI50 with HCC 2998, in the test on Malme-3M, in the test on SK-OV-3, in the test with LOX IMVI, with T47D and in the test on OVCAR-3 was > 100 µM (inactive) each time. Besides, the GI50 in the test with SF-539, in the test on SK-MEL-2, in the test with OVCAR-8, with A549, in the test on NCI-H460 and in the test on SF-268 was > 100 µM (inactive) throughout. Moreover, the GI50 in the test on SR and in the test on HOP-92 was > 100 µM (inactive) in each case.

`O=C(O)CC(Cc1ccc2c(c1)OCO2)C(=O)O` (stereo not given): the GI50 was > 100 µM (inactive) in the test with HL-60; > 100 µM (inactive) in the test with KM12; > 100 µM (inactive) with MCF7; > 100 µM (inactive) in the test with RXF 393; > 100 µM (inactive) in the test on M14; > 100 µM with HCT-15. Moreover, the GI50 with HCC 2998, with Malme-3M, in the test with SK-OV-3, with LOX IMVI, in the test with T47D and with OVCAR-3 was > 100 µM (inactive) each time. The GI50 in the test on SF-539, with SK-MEL-2, in the test on OVCAR-8, with A549, in the test on NCI-H460 and in the test with SF-268 was > 100 µM (inactive) throughout. In addition, the GI50 with SR and with HOP-92 was > 100 µM (inactive) each time.

These data come from ChEMBL document CHEMBL1201862, “PubChem BioAssay data set” (2004).
